US7282522B2, “Hydroxamic acid derivatives and the method for preparing thereof” (Amorepacific Corporation, priority 2003, dated 2007)

Columns and labels:
RARα = biological target: T1, RARα (Homo sapiens, UniProt P10276); assay: RARE-luciferase reporter assay in transfected CV-1 cells (affinity to retinoic acid receptor), RARα; assay type: cell-based; conditions: treated 24 hours at final concentration 10^−4M, control group 1000
T1 construct: expressed in transfected cells; host or cells: CV-1 cells (ATCC)
T1 sequence (P10276 1-462): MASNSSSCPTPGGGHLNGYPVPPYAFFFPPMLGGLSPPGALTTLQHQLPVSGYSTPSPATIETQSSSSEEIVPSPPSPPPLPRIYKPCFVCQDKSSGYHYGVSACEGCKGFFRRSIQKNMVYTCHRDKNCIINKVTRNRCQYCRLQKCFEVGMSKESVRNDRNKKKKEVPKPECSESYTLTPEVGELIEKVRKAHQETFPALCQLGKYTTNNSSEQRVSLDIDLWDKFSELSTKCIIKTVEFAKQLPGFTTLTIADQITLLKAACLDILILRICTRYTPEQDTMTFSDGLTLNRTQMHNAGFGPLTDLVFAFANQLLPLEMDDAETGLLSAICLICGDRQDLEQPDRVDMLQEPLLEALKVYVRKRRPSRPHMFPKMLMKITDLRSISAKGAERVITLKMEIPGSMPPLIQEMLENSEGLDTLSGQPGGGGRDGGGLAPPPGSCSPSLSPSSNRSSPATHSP
Source text: This example illustrates affinities of hydroxamic acid derivatives obtained in Examples 1 to 55 to retinoic acid receptor, in comparison with retinol and retinoic acid.
(§1) Receptor-expression plasmid, pECE-RARα and pECE-RARγ were engineered by the prior method (Mol. Cell. Biol. 1996, 16, 1138-1149). RARE-tk-Luc, i.e. RARE reporter was obtained by inserting RARE fragment from b-RARE-tk-CAT into pGL3 luciferase basic vector. CV-1 cells were obtained from ATCC (American Type Culture Collection).
CV-1 cells were seeded into 96-well microtiter plate at 5,000 cells per well and cultured in DMEM (Dulbecco's Modified Eagle's Media) supplemented with 2.5% fetal bovine serum. 24 Hours later, the cells were transfected with 10 ng of pECE-RARα, long of pECE-RARγ, 100 ng of reporter plasmid and 100 ng of β-galactosidase-expression vector, using LipofectaminPlus (GIBCO BRL, grand island, N.Y.). 24 Hours post-transfection, the cells were treated for 24 hours with hydroxamic acid derivatives of Examples 1˜55 or retinol at a final concentration of 10^−4M or with retinoic acid at a final concentration of 10^−5M, which is 10 times lower concentration than those of the former.

RARγ = biological target: T2, RARγ (Homo sapiens, UniProt P13631); assay: RARE-luciferase reporter assay in transfected CV-1 cells (affinity to retinoic acid receptor), RARγ; assay type: cell-based; conditions: treated 24 hours at final concentration 10^−4M, control group 5000
T2 construct: expressed in transfected cells; host or cells: CV-1 cells (ATCC)
T2 sequence (P13631 1-454): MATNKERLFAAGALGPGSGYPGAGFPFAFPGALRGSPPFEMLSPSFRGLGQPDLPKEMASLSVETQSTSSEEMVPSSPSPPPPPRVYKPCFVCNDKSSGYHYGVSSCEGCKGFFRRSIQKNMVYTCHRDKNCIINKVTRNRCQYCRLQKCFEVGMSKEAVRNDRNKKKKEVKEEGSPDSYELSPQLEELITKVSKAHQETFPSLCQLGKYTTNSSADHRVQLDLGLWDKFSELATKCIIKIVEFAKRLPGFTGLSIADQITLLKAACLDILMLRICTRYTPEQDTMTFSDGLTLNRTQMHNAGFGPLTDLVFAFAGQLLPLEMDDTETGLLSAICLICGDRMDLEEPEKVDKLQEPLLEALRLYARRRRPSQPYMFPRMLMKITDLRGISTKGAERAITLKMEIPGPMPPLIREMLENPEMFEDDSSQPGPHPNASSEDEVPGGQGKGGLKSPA
Description: as §1
CV-1 cells were seeded into 96-well microtiter plate at 5,000 cells per well and cultured in DMEM (Dulbecco's Modified Eagle's Media) supplemented with 2.5% fetal bovine serum. 24 Hours later, the cells were transfected with 10 ng of pECE-RARα, long of pECE-RARγ, 100 ng of reporter plasmid and 100 ng of β-galactosidase-expression vector, using LipofectaminPlus (GIBCO BRL, grand island, N.Y.).

procollagen type I = assay: Effect on collagen biosynthesis (procollagen type I ELISA) in human fibroblasts; assay type: cell-based; conditions: 10^−4M, 24 hours, serum-free medium, relative to control group = 100
Description: Human fibroblasts were seeded into 24-well plate at 1×10^5 cells per well and then cultured to 90% of growth.
For each supernatant, procollagen production was measured with procollagen type I ELISA kit.

collagenase = assay: Inhibition of collagenase expression in human fibroblasts (ELISA kit); assay type: cell-based; conditions: 10^−4M, 24 hours, serum-free medium, relative to control group = 100
Description: Human fibroblasts were seeded into 96-well microtiter plate at 5,000 cells per well and then cultured to 90% of growth in DMEM (Dulbecco's Modified Eagle's Media) supplemented with 2.5% fetal bovine serum. Then, the fibroblastes were cultured in serum-free DMEM for 24 hours and treated for 24 hours with 10^−4M of hydroxamic acid derivatives of Examples 1˜55, retinol or retinoic acid in serum-free medium, and then the culture fluid was collected.
(§2) For each culture fluid, collagenase production was measured with collagenase kit (commercialized by AmershamPharmacia Biotech). Firstly, the culture fluid was added to 96-well plate spread with primary collagenase antibody and then antigen-antibody reaction was performed in an incubator for 3 hours. Later, chromophore-conjugated secondary antibody was added to the 96-well plate and then reacted for 15 minutes. Then, color former was added thereto, to induce development at room temperature for 15 minutes. 1M of sulfuric acid was added to stop the reaction. […] The color density depends on the progress of the reaction. The absorbance of the yellow 96-well plate was measured at 405 nm using absorptiometer. Collagenase expression was calculated by the following equation 1. Herein, the absorbance of the culture fluid collected from the medium with no material treated was used as a control. Collagenase expression (%)=(Absorbance of test group with said material treated/Absorbance of control group with no material treated)×100 [Equation 1]
Collagenase expression was evaluated as a relative value, in consideration that the value of control group with no material treated is 100.

elastase = assay: Inhibition of elastase expression in human fibroblasts (ELISA kit); assay type: cell-based; conditions: 10^−4M, 24 hours, serum-free medium, relative to control group = 100
Description: as §2, with “elastase” for “collagenase”, “Elastase” for “Collagenase”, “2.” for “1.”, “2]” for “1]”
Elastase expression was evaluated as a relative value, in consideration that the value of control group with no material treated is 100.

white guinea pigs = assay: Phototoxicity test (UVA irradiation); conditions: for Evaluation (phototoxicity): 1%(w/v) solution, UVA 15 J/cm^2; for Phototoxic index: 50 μl of 1%(w/v) solution, UVA 320~380 nm 15 J/cm^2, observed 24, 48 and 72 hours
Description: Test was performed for twenty-five (25) of white guinea pigs whose backs were depilated and fixed. On both sides of the back, six(6) sites of 2 cm×2 cm, three(3) per side were sectioned. Right sites were compared as controls with no irradiation (UV non-irradiation sites) and left sites were irradiated (UV irradiation sites).
30 Minutes later, right sites were shielded with aluminum foil and UVA(320˜380 nm) was irradiated at a distance of about 10 cm therefrom using Waldmann to the final energy of 15 J/cm^2. After 24, 48 and 72 hours elapsed, skin response of guinea pig was observed. […] Evaluation was estimated for each elapsed time, i.e. 24, 48 and 72 hours and maximum scores were selected, to calculate irritation index by the following equation 3. Then, phototoxic index was calculated by the following equation 4. Irritation index=(ΣMaximum of erythema+ΣMaximum of edema)/Number of animals [Equation 3] Phototoxic index=(Irritation index of UV irradiation site)−(Irritation index of UV non-irradiation site) Equation 4]

rabbits = assay: Primary skin irritation test on animals (Draize P.I.I.); conditions: depilated back; for P.I.I. (Primary Irritation Index): 0.5 ml of 1% solution in 1,3-butylene glycol:ethanol 7:3, observed 24 or 72 hours later; for Evaluation (skin irritation): 1% solution, according to Draize's P.I.I.
Description: Test was performed using fifty-six (56) of healthy male rabbits whose backs were depilated. […] 0.5ml of the test sample solution was applied to the right site of 2.5 cm×2.5 cm region on each of the depilated back. Left site with no sample treated was compared as a control. 24 hours or 72 hours later, skin abnormality such as erythema, crust and edema was observed.
Based on the score of skin response, skin irritation was evaluated according to Draize's P.I.I.(Primary Irritation Index) and compared with retinoic acid.

| SMILES | Luciferase activity RARα (RARα) | Luciferase activity RARγ (RARγ) | Collagen biosynthesis (%) (procollagen type I) | Collagenase expression (%) (collagenase) | Elastase expression (%) (elastase) | Evaluation (phototoxicity) (white guinea pigs) | Phototoxic index (white guinea pigs) | P.I.I. (Primary Irritation Index) (rabbits) | Evaluation (skin irritation) (rabbits) |
| --- | --- | --- | --- | --- | --- | --- | --- | --- | --- |
| CC(C)(C)c1ccc(C(=O)Nc2ccc(C(=O)NO)cc2)cc1 [Example 8, N-[4-(N-hydroxycarbamoyl)phenyl][4-tert-butylphenyl]carboxyamide] | 10002 | 12000 | 112 | 90 | 69 | No phototoxicity (lower value than 0.5, criterion value to be estimated as no phototoxicity) | 0 | 0.330 | No irritation |
| Cc1ccc(C(=O)Nc2ccc(C(=O)NO)cc2)cc1C [Example 9, N-[4-(N-hydroxycarbamoyl)phenyl][3,4-dimethylphenyl]carboxyamide] | 12000 | 12000 | 120 | 65 | 67 | No phototoxicity (lower value than 0.5, criterion value to be estimated as no phototoxicity) | 0 | 0.470 | No irritation |
| CN(O)C(=O)c1ccc(NC(=O)C23CC4CC(CC(C4)C2)C3)cc1 [Example 11, adamantyl-N-[4-(N-hydroxy-N-methylcarbamoyl)phenyl]carboxyamide] | 11600 | 10000 | 110 | 81 | 65 | No phototoxicity (lower value than 0.5, criterion value to be estimated as no phototoxicity) | 0 | 0.375 | No irritation |
| CN(C(=O)c1ccccc1)c1ccc(C(=O)NO)cc1 [Example 12, N-[4-(N-hydroxycarbamoyl)phenyl]-N-methyl-benzamide] | 14500 | 11300 | 122 | 64 | 80 | No phototoxicity (lower value than 0.5, criterion value to be estimated as no phototoxicity) | 0 | 0.410 | No irritation |
| Cc1ccc(C(=O)N(C)c2ccc(C(=O)NO)cc2)cc1 [Example 13, N-[4-(N-hydroxycarbamoyl)phenyl]-N-methyl-[4-methylphenyl]carboxyamide] | 12000 | 11200 | 117 | 70 | 84 | No phototoxicity (lower value than 0.5, criterion value to be estimated as no phototoxicity) | 0 | 0.500 | No irritation |
| Cc1cccc(C(=O)N(C)c2ccc(C(=O)NO)cc2)c1 [Example 14, N-[4-(N-hydroxycarbamoyl)phenyl]-N-methyl-[3-methylphenyl]carboxyamide] | 18000 | 10300 | 115 | 72 | 75 | No phototoxicity (lower value than 0.5, criterion value to be estimated as no phototoxicity) | 0 | 0.231 | No irritation |
| CCc1ccc(C(=O)N(C)c2ccc(C(=O)NO)cc2)cc1 [Example 15, N-[4-(N-hydroxycarbamoyl)phenyl]-N-methyl-[4-ethylphenyl]carboxyamide] | 14500 | 10400 | 112 | 79 | 76 | No phototoxicity (lower value than 0.5, criterion value to be estimated as no phototoxicity) | 0 | 0.789 | No irritation |
| CCCc1ccc(C(=O)N(C)c2ccc(C(=O)NO)cc2)cc1 [Example 16] | 12300 | 11200 | 120 | 80 | 77 | No phototoxicity (lower value than 0.5, criterion value to be estimated as no phototoxicity) | 0 | 0.567 | No irritation |
| CC(C)c1ccc(C(=O)N(C)c2ccc(C(=O)NO)cc2)cc1 [Example 17] | 12400 | 11700 | 111 | 81 | 82 | No phototoxicity (lower value than 0.5, criterion value to be estimated as no phototoxicity) | 0 | 0.123 | No irritation |
